Counter-ions that a name gives are not always drawn.
Key:
BRD4 (BD1) = molecular target: T1, BRD4 (BD1) (Homo sapiens, UniProt O60885); test: BRD4 (BD1) bromodomain binding, HTRF; conditions: 2 h incubation at r.t.
T1 construct: Each member comprises two tandem bromodomains (BD1 and BD2) for recognizing the acetylated lysine residues

BRD4 (BD2) = molecular target: T2, BRD4 (BD2) (Homo sapiens, UniProt O60885); test: BRD4 (BD2) bromodomain binding, HTRF; conditions: 2 h incubation at r.t.
T2 construct: Each member comprises two tandem bromodomains (BD1 and BD2) for recognizing the acetylated lysine residues

MV-4-11 cells = test: Inhibitory effect on MV-4-11 cells (CellTiter-Glo); format: cell-based; conditions: Homo sapiens, MV4-11; 72 hours, CellTiter-Glo; read-out: MV-4-11
Experimental: The 1st Day: Seed the Cells on the Plate
1. The cells were verified that they were in good conditions by observation under microscope;
2. The cells were transferred to a 15 mL centrifuge tube, after centrifuged at 1000 rpm for 5 min, the supernatant was discarded;
3. The complete medium (IMDM+10% FBS) was added, then blown and patted into single cell suspension, counted by Vi-cell cytometer, the cell suspension was adjusted to desired cell density by the complete medium.
4. The cells were inoculated into a 96 well plate, the cell number was 15000/well at 100 μL per well, 100 μL complete medium was added into the black control.
5. 37° C., 5% CO2 culture overnight.
The 2nd Day: Addition of the Drugs
1. 1000× Compound Plate Preparation
1.1. The test compound was prepared into 10 mM working solution by using DMSO. Then the STS was prepared into 2 mM working solution by using DMSO.
1.2. In the round bottom 96 wells plate, the column 2 of row A to H was added into 60 μL 10 mM test compound (or STS) working solution, columns 3-11 were added into 40 μL DMSO, 20 μL drug solution was pipetted from the column 2 to the column 3, blown and patted for a homogeneous mixture; then 20 μL solution was pipetted from the column 3 to the column 4, blown and patted for a homogeneous mixture, sequently, the drug was diluted by 3 times, 10 concentrations in total. The columns 1 and 12 were supplemented with 40 μL of DMSO.
2. Intermediate plate areparation
A sterile V-bottom 96 deep well plate was used and in each well, 495 μL FBS-free PRMI 1640 medium was added, then 5 μL of the diluted compound (or DMSO) in the 1000× compound plate was pipetted into corresponding position of the V-bottom 96 well plate, blown and patted evenly.
3.1. The cell plate was taken out from the incubator and was observed under microscope. The diluted compound or DMSO in the intermediate plate was added into the cell plate, 11 μL each well.
3.2. The cell was continued to be cultured at 37° C., 5% CO2 for 72 hours.
The 5th Day: CellTiter-Glo Detection of the Cell Activity
1. The CellTiter-Glo buffer and the reaction substrate were taken out from the refrigerator, after balanced to r.t., the buffer was poured into a brown bottle containing the substrate, the bottle was upside down to have the substrate powder sufficientaly dissolved.
2. The cell was observed under microscope; the cell plate was balanced to r.t.
3. The prepared CellTiter-Glo was added into the 96 well plate, at 100 μL/well.
4. The cell plate was placed on a shaker for 10 min, followed by standing at r.t. for 10 min.
5. A white seal film was attached to the bottom of the well plate, and the chemiluminescence signal of each well was detected by the Enspire microplate detector.
6. XLfit was used for data processing. Inhibition rate %=(d−c)/(d−b)×100, while d is the signal value of the DMSO treated group, c is the signal value of the compound treated group, b is signal value of the blank control that only containing medium and DMSO without cells. The data was fitted using the f(x)205[fit=(A+((B−A)/(1+((C/x)^∧D))))] equation in the XLfit software.

Row | SMILES | IC50 (BRD4 (BD1)) [nM] | IC50 (BRD4 (BD2)) [nM] | IC50 (MV-4-11 cells) [nM]
1 | Cn1cc2c(cc1=O)CN=C(c1ccc(F)cc1Cl)c1ccc(CS(C)(=O)=O)cc1-2 [Compound 4098, 7-(2-chloro-4-flurophenyl)-2-methyl-10-((dimethylfulfone)methyl)-2,5-dihydro-3H-benzo[c]pyrido[3,4-e]azepin-3-ketone] | 22 | 3 | –
2 | CCNC(=O)C[C@@H]1N=C(c2ccc(Cl)cc2)c2ncccc2-c2cn(C)c(=O)cc21 [Compound 4030, (S)-2-(7-(4-chlorophenyl)-2-methyl-3-oxo-3,5-dihydro-2H-dipyrido[2,3-c:3′,4′-e]azepin-5-yl)-N-ethyl acetamide] | 6 | 2 | 17
3 | CCS(=O)(=O)Cc1ccc2c(c1)-c1cn(C)c(=O)cc1N(C)N=C2c1ccc(F)cc1Cl [Compound 4093, 7-(2-chloro-4-flurophenyl)-10-((ethylsulfonyl)methyl)-2,5-dimethyl-2,5-dihydro-3H-benzo[e]pyrido[4,3-c][1,2]diazepin-3-ketone] | 5 | 0.7 | 17
4 | CCS(=O)(=O)Cc1ccc2c(c1)-c1cn(C)c(=O)cc1[C@H](C(F)(F)F)N=C2c1ccc(F)cc1 [Compound 4040, (R)-10-((ethylsulfonyl)methyl)-7-(4-flurophenyl)-2-methyl-5-(trifluoromethyl)-2,5-dihydro-3H-benzo[c]pyrido[3,4-e]azepin-3-ketone] | 5 | 2 | 43
5 | CCNS(=O)(=O)c1ccc2c(c1)-c1cn(C)c(=O)cc1[C@H](C)N=C2c1ccc(F)cc1 [Compound 4052, (S)—N-ethyl-7-(4-flurophenyl)-2,5-dimethyl-3-oxo-3,5-dihydro-2H-benzo[c]pyrido[3,4-e]azepin-10-sulfamide] | 6 | 2 | 55
6 | C[C@@H]1N=C(c2ccc(Cl)cc2)c2ccccc2-c2cn(C)c(=O)cc21 [Compound 4025, (S)-7-(4-chlorophenyl)-2,5-dimethyl-2,5-dihydro-3H-benzo[c]pyrido[3,4-e]azepin-3-ketone] | 7 | 3 | 54
7 | CCS(=O)(=O)Cc1ccc2c(c1)-c1nn(C)c(=O)cc1C(C)N=C2c1ccc(F)cc1Cl (centres unmarked) [Compound 4097, 7-(2-chloro-4-flurophenyl)-10-((ethylsulfonyl)methyl)-2,5-dimethyl-2,5-dihydro-3H-benzo[c]pyridazino[3,4-e]azepin-3-ketone] | 20 | 3 | –
8 | Cn1cc2c(cc1=O)CNC(c1ccc(F)cc1)c1ccc(CS(C)(=O)=O)cc1-2 (centres unmarked) [Compound 4008, 7-(4-fluorophenyl)-2-methyl-10-(methylsulfonemethyl)-6,7-dihydro-2H-benzo[c]pyrido[3,4-e]azepin-3(5H)-ketone formate] | 113 | 28 | –
9 | CCS(=O)(=O)Cc1ccc2c(c1)-c1cn(C)c(=O)cc1[C@H](C)N=C2c1cc(OC)c(F)cc1Cl [Compound 4102, (S)-7-(2-chloro-4-fluoro-5-methoxylphenyl)-10-((ethylsulfonyl)methyl)-2,5-dimethyl-2,5-dihydro-3H-benzo[c]pyrido[3,4-e]azepin-3-ketone] | 5 | 0.8 | –
10 | CCS(=O)(=O)Cc1ccc2c(c1)-c1cn(C)c(=O)cc1CN=C2c1ccc(Cl)cc1F [Compound 4013, 7-(4-chloro-2-fluorophenyl)-10-((ethylsulfone)methyl)-2-methyl-2,5-dihydro-3H-benzo[c]pyrido[3,4-e]azepin-3-ketone] | 7 | 2 | 75
11 | CCS(=O)(=O)Cc1ccc2c(c1)C(c1ccc(F)cc1)=NCc1cc(=O)n(C)cc1-2 [Compound 4039, 9-((ethylsulfonyl)methyl)-7-(4-flurophenyl)-2-methyl-2,5-dihydro-3H-benzo[c]pyrido[3,4-e]azepin-3-ketone] | 163 | 204 | –
12 | Cn1cc2c(c1C#N)CCN(c1ccc(F)cc1)c1ccc(CS(C)(=O)=O)cc1-2 [Compound 4004, 6-(4-Fluorophenyl)-2-methyl-9-(methylsulfonylmethyl)-2,4,5,6-tetrahydrobenzo[b]pyrrolo[3,4-d]azepin-3-nitrile] | 109 | 184 | –
13 | CCNC(=O)C[C@@H]1N=C(c2ccc(F)cc2)c2cc(OC)c(F)cc2-c2cn(C)c(=O)cc21 [Compound 4036, (S)—N-ethyl-2-(10-fluoro-7-(4-flurophenyl)-9-methoxyl-2-methyl-3-oxo-3,5-dihydro-2H-benzo[c]pyrido[3,4-e]azepin-5-yl)acetamide] | 5 | 2 | –
14 | CCS(=O)(=O)Cc1ccc2c(c1)-c1cn(C)c(=O)cc1C1(CC1)N=C2c1ccc(F)cc1 [Compound 4041, 10-((ethylsulfonyl)methyl)-7-(4-flurophenyl)-2-methyl spiro[benzo[c]pyrido[3,4-e]azepin-5,1′-cyclopropane]-3(2H)-ketone] | 12 | 12 | –
15 | CCS(=O)(=O)Cc1ccc2c(c1)-c1cn(C)c(=O)cc1CN=C2c1cc(OC)c(F)cc1Cl [Compound 4096, 7-(2-chloro-4-fluoro-5-methoxylphenyl)-10-((ethylsulfonyl)methyl)-2-methyl-2,5-dihydro-3H-benzo[c]pyrido[3,4-e]azepin-3-ketone] | 44 | 4 | –
16 | CNS(=O)(=O)Nc1ccc2c(c1)-c1cn(C)c(=O)cc1[C@H](C)N=C2c1ccc(F)cc1 [Compound 4050, (S)—N-(7-(4-flurophenyl)-2,5-dimethyl-3-oxo-3,5-dihydro-2H-benzo[c]pyrido[3,4-e]azepin-10-yl)methylamine sulfonamide] | 17 | 9 | –

Compounds with a lower IC50 (BRD4 (BD1)), results first:

Row | IC50 (BRD4 (BD1)) [nM] | IC50 (BRD4 (BD2)) [nM] | IC50 (MV-4-11 cells) [nM] | SMILES
17 | 3 | 2 | 49 | CCS(=O)(=O)Cc1cc2c(cc1OC)C(c1ccc(F)cc1)=NCc1cc(=O)n(C)cc1-2 [Compound 4094, 10-((Ethylsulfonyl)methyl)-7-(4-flurophenyl)-9-methoxyl-2-methyl-2,5-dihydro-3H-benzo[c]pyrido[3,4-e]azepin-3-ketone]
18 | 3 | 1 | 1 | C[C@@H]1N=C(c2ccc(F)cc2)c2cc(Cl)c(NS(C)(=O)=O)cc2-c2cn(C)c(=O)cc21 [Compound 4079, (S)—N-(9-chloro-7-(4-flurophenyl)-2,5-dimethyl-3-oxo-3,5-dihydro-2H-benzo[c]pyrido[3,4-e]azepin-10-yl)methylsulfamide]
19 | 3 | 0.7 | – | CCS(=O)(=O)Cc1ccc2c(c1)-c1cn(C)c(=O)cc1[C@H](C)N=C2c1ccc(F)cc1Cl [Compound 4101, (S)-7-(2-chloro-4-flurophenyl)-10-((ethylsulfonyl)methyl)-2,5-dimethyl-2,5-dihydro-3H-benzo[c]pyrido[3,4-e]azepin-3-ketone]
20 | 3 | 1 | – | CCNC(=O)C[C@@H]1N=C(c2ccc(F)cc2)c2c(ccc(OC)c2F)-c2cn(C)c(=O)cc21 [Compound 4035, (S)—N-ethyl-2-(8-fluoro-7-(4-flurophenyl)-9-methoxyl-2-methyl-3-oxo-3,5-dihydro-2H-benzo[c]pyrido[3,4-e]azepin-5-yl)acetamide]
21 | 2 | 1 | 7 | CCS(=O)(=O)Cc1ccc2c(c1)-c1cn(C)c(=O)cc1[C@H](C)N=C2c1ccc(OC)cc1 [Compound 4053, (S)-10-((ethylsulfonyl)methyl)-7-(4-methoxylphenyl)-2,5-dimethyl-2,5-dihydro-3H-benzo[c]pyrido[3,4-e]azepin-3-ketone]
22 | 2 | 1 | – | CCS(=O)(=O)Cc1ccc2c(c1)-c1cn(C)c(=O)cc1[C@H](C)N=C2c1ccc(OC)c(F)c1 [Compound 4104, (S)-10-((ethylsulfonyl)methyl)-7-(3-fluoro-4-methoxylphenyl)-2,5-dimethyl-2,5-dihydro-3H-benzo[c]pyrido[3,4-e]azepin-3-ketone]
23 | 2 | 1 | – | CCS(=O)(=O)Cc1ccc2c(c1)-c1cn(C)c(=O)cc1[C@H](C)N=C2c1ccncc1 [Compound 4105, (S)-10-((ethylsulfonyl)methyl)-2,5-dimethyl-7-(pyridin-4-yl)-2,5-dihydro-3H-benzo[c]pyrido[3,4-e]azepin-3-ketone]
24 | 2 | 0.9 | – | CNS(=O)(=O)Cc1ccc2c(c1)-c1cn(C)c(=O)cc1N(C)N=C2c1ccc(F)cc1 [Compound 4099, 1-(7-(4-flurophenyl)-2,5-dimethyl-3-oxo-3,5-dihydro-2H-benzo[e]pyrido[4,3-c][1,2]diazepin-10-yl)-N-methylmethane sulfamide]
25 | 2 | 0.6 | – | CNS(=O)(=O)Cc1ccc2c(c1)-c1cn(C)c(=O)cc1[C@H](C)N=C2c1ccc(F)c(OC)c1 [Compound 4103, (S)-1-(7-(4-fluoro-3-methoxylphenyl)-2,5-dimethyl-3-oxo-3,5-dihydro-2H-benzo[c]pyrido[3,4-e]azepin-10-yl)-N-methylmethane sulfamide]
26 | 1 | 1 | 8 | C[C@@H]1N=C(c2ccc(F)cc2)c2ccc(CS(=O)(=O)C3CC3)cc2-c2cn(C)c(=O)cc21 [Compound 4045, (S)-7-(4-flurophenyl)-2,5-dimethyl-10-((cyclopropylsulfone)methyl)-2,5-dihydro-3H-benzo[c]pyrido[3,4-e]azepin-3-ketone]
27 | 1 | 1 | 4 | CCS(=O)(=O)Cc1ccc2c(c1)-c1cn(C)c(=O)cc1[C@H](C)N=C2c1ccc(F)cc1F [Compound 4046]
28 | 1 | 1 | 2 | C[C@@H]1N=C(c2ccc(F)cc2)c2cc(F)c(NS(C)(=O)=O)cc2-c2cn(C)c(=O)cc21 [Compound 4074, (S)—N-(9-fluoro-7-(4-flurophenyl)-2,5-dimethyl-3-oxo-3,5-dihydro-2H-benzo[c]pyrido[3,4-e]azepin-10-yl) methylsulfamide]
